Measurements as given in patent publication US7763751B2 (priority 2003, dated 2010).
Read-outs that look alike come from different tables or passages of the source.

How the values were obtained:
β-Amyloid1-42 = molecular target: T1, β-Amyloid1-42 (Homo sapiens, UniProt P05067); assay: Inhibition of Aβ 1-42 spontaneous aggregation (HPLC assay); assay type: biochemical; settings: for IC50: concentration able to inhibit the aggregation of the fibrils by 50%, peptide 20 μM, pH 7.4, 18 h at 37° C., read-out: β-Amyloid1-42 Anti-aggregation (HPLC assay) IC50; for potency in inhibiting the aggregation of Aβ1-42 as compared to compound (3): comparison with known compound (3); for anti-aggregating properties against Aβ1-42: in words
T1 construct: Synthetic Aβ 1-42 (U.S. Peptide, Rancho Cucamonga, USA); purchased U.S. Peptide, Rancho Cucamonga, USA; host or cells: chemical synthesis
Procedure: (§1) In our experimental conditions, the peptide monomer (anti-aggregation protocol) or already aggregated (disaggregation protocol) was incubated at 37° C., alone or in the presence of the test compound, for different time intervals, then centrifuged and both the supernatant and the pellet were analyzed by HPLC or Thioflavine T binding assay.
Inhibition of Aβ 1-42 Spontaneous Aggregation
Preparation of the Aβ 1-42 peptide
Synthetic Aβ 1-42 (U.S. Peptide, Rancho Cucamonga, USA) was dissolved to 220 μM in H2O/CH3CN 1:1. Aliquots of 10 μg were lyophilized under vacuum with an Eppendorf concentrator for 18 h and stored at −80° C.
Aβ 1-42 spontaneous aggregation
10 μg of lyophilized peptide sample was dissolved at 20 μM in 20 mM potassium phosphate buffer, pH 7.4, containing 150 mM NaCl. The sample was incubated for 18 h at 37° C. After centrifugation at 13000 xg for 5 min, the pellet was dissolved in formic acid and both the pellet and the supernatant were analysed by HPLC. The extent of aggregation was determined as the percentage of peptide content in the pellet compared with the total amount.

α-synuclein = molecular target: T2, α-synuclein (Homo sapiens, UniProt P37840); assay: Inhibition of NAC (α-synuclein) spontaneous aggregation (HPLC assay); assay type: biochemical; settings: for potency in inhibiting the aggregation of α-synuclein as compared to compound (3): comparison with known compound (3); for anti-aggregating properties against α-synuclein: in words
T2 construct: The synthetic peptide NAC (Bachem) was dissolved at 1 mg/ml; purchased Bachem; host or cells: chemical synthesis
Procedure: as §1
Inhibition of Non Aβ Component of Alzheimer's Disease Amyloid (NAC, α-synuclein) Spontaneous Aggregation
Preparation of the NAC peptide
The synthetic peptide NAC (Bachem) was dissolved at 1 mg/ml in H2O/CH3CN 1:1 plus 5% TFA. Aliquots of 40 μg were lyophilized under vacuum for 18 h and stored at −80° C.
NAC spontaneous aggregation
40 μg of lyophilized peptide sample was dissolved at 500 μM in 20 mM potassium phosphate buffer, pH 7.4, containing 150 mM NaCl. The sample was incubated for 24 h at 37° C. After centrifugation at 13000 xg for 5 min, the pellet was dissolved in formic acid and both pellet and supernatant were analyzed by HPLC. The extent of aggregation was determined as the percentage of peptide content in the pellet compared to the total amount used.

T1 sequence (P05067 672-713 limits assumed): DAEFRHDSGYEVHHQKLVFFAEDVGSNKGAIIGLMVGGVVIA

Compound	IC50 (β-Amyloid1-42) [µM]	IC50 (α-synuclein; NAC peptide 500 μM, pH 7.4, 24 h at 37° C., read-out: α-synuclein Anti-aggregation (HPLC assay) IC50) [µM]	potency in inhibiting the aggregation of Aβ1-42 as compared to compound (3) (β-Amyloid1-42)	anti-aggregating properties against Aβ1-42 (β-Amyloid1-42)	IC50 (α-synuclein) [µM]	potency in inhibiting the aggregation of α-synuclein as compared to compound (3) (α-synuclein)	anti-aggregating properties against α-synuclein (α-synuclein)
CCCN(CCC)[C@@H]1Cc2c(O)ccc(O)c2C[C@H]1C (relative stereo) [Compound 3, trans-N-(5,8-hydroxy-3-methyl-1,2,3,4-tetrahydro-naphtalene-2yl)-N,N-dipropyl-amine, reference compound]	60	878	–	–	–	–	–
CCCN(OCC)C1CCc2c(ccc(O)c2O)C1 (centres unmarked) [Compound 2, N-(5,6-dihydroxy-1,2,3,4-tetrahydro-naphthalene-2-yl)-N-propyl-O-ethyl-hydroxylamine]	6	–	significantly more potent	significant anti-aggregating properties	35	significantly more potent	significant anti-aggregating properties
CONC(C)Cc1ccc(O)c(O)c1 (centres unmarked) [Compound 1, N-(1-methyl-2-(3,4-dihydroxy-phenyl)-ethyl)-O-methyl-hydroxylamine]	15	–	more potent	significant anti-aggregating properties	222	more potent	significant anti-aggregating properties
